Values quoted from earlier work in patent US5476933A, “Azepine synthesis via a diels-alder reaction” (priority 1994, dated 1995).

What was measured:
rodents = details: literature; cited from earlier work
PCP receptor = details: Wong et al. 1986; cited from earlier work

For `C[C@]12N[C@H](Cc3ccccc31)c1ccccc12` [MK-801], the “PCP-like behavioral effects, in words” value (rodents) is listed as “adverse PCP-like behavioral side effects” and the Kd (PCP receptor) is listed as about 3 nM.
